Measurements taken from US20040267001A1, “Genes encoding baeyer-villiger monooxygenases” (priority 2001, published 2004).

Key:
[1] = biological target: T1, Acinetobacter sp. SE19 chnB monooxygenase (Acinetobacter sp., UniProt Q9F7E4); assay: chnB monooxygenase activity assay, NADPH oxidation at 340 nm, purified over-expressed enzyme; type: biochemical; details: 1.25 mM substrate, pH 7.5; ND = No Activity Detected
T1 construct: isolated full length BVMO genes from Brevibacterium sp; HCU, Acinetobacter SE19; C-terminal tail provided by the pTrcHis-TOPO vector (C); made in house; host or cells: E. coli
Text: (§1) Following amplification, the chnB gene fragments were cloned into pTrcHis-TOPO TA vectors with either an N-terminal tail or C-terminal tail, as provided by the vector sequence (N-terminal tail for Brevibacterium sp. HCU, Rhodococcus sp. phi1, Rhodococcus sp. phi2, and Arthrobacter sp. BP2 monooxygenases; C-terminal tail for Acinetobacter sp. SE19 and Acidovorax sp. CHX monooxygenases). These vectors were transformed into E. coli, with transformants grown in Luria-Bertani broth supplemented with ampicillin (100 ug/ml) and riboflavin (0.1 ug/ml) at 30° C. until the absorbance at 600 nm (A600) reached 0.5. When the A600 was reached, the temperature was shifted to 16° C.
(§2) The encoded monooxygenase sequences were expressed upon addition of IPTG to the culture media, 30 min after the temperature shift to 16° C. The cultures were grown further ovemight (14 hrs) and harvested by centrifugation in a cold centrifuge. The cells were treated with lysozyme (100 mg/ml) for 30 min on ice and sonicated. Following sonication, cell extracts were centrifuged and the supernatant was equilibrated with Ni-NTA resin (Qiagen, Valencia, Calif.) for 1 hr at 4° C. Protein bound resin was washed successively with increasing concentrations of imidazole buffer until the protein of interest was released from the resin. The purified protein was concentrated and the buffer exchanged to remove the imidazole. The protein concentration was adjusted to 1 ug/ml.
(§3) Compounds were selected on the basis of previous observations by van der Werf (J. Biochem. 347:693-701 (2000)) and Miyamoto et al. (Biochimica et Biophysica Acta 1251: 115-124 (1995)) and by searches for the ketone substructure.
(§4) All compounds were obtained from Sigma-Aldrich with only two exceptions. Levoglucosenone was obtained from Toronto Research Chemicals, Inc. and dimethyl-2-piperidone was prepared according to U.S. Pat. No. 6,077,955. For enzyme assays all compounds were dissolved to a concentration of 0.1 M in methanol, with the exceptions of norcamphor (dissolved in ethyl acetate), cyclododecanone, cycltridecanone and cyclopentadecanone (dissolved in propanol), and levoglucosenone (dissolved with acetone).
(§5) The monooxygenase activity of each over-expressed enzyme was assayed spectrophotometrically at 340 nm by monitoring the oxidation of NADPH. Assays were performed in individual quartz cuvettes, with a pathlength of 1 cm. […] An Ultrospec 4000 (Pharmacia Biotech, Cambridge, England) was used to read the absorbance of the samples over a two to ten minute time period and the SWIFT (Pharmacia Biotech) program was used to calculate the slope of the reduction in absorbance over time. For the Brevibactedum sp. […] Monooxygenase activity of each over-expressed enzyme is shown in Table 5, with respect to each ketone substrate. The specific activity values listed are given in umol/min/mg. The notation “ND” refers to “No Activity Detected”.

[2] = tested on: Acidovorax sp. CHX chnB monooxygenase; assay: as above; type: biochemical; details: 1.25 mM substrate, pH 7.5; ND = No Activity Detected
Text: as §1, §2, §3, §4, §5

[3] = tested on: Rhodococcus sp. phi2 chnB monooxygenase; assay: as above; type: biochemical; details: 1.25 mM substrate, pH 7.5; ND = No Activity Detected
Text: as §1, §2, §3, §4, §5

[4] = tested on: Brevibacterium sp. HCU chnB2 monooxygenase; assay: as above; type: biochemical; details: 1.25 mM substrate, pH 7.5; rates multiplied by a factor of 3.25 to adjust for decrease in activity due to storage; ND = No Activity Detected
Text: as §1, §2, §3, §4, §5

[5] = tested on: Brevibacterium sp. HCU chnB1 monooxygenase; assay: as above; type: biochemical; details: 1.25 mM substrate, pH 7.5; ND = No Activity Detected
Text: as §1, §2, §3, §4, §5

[6] = tested on: Arthrobacter sp. BP2 chnB monooxygenase; assay: as above; type: biochemical; details: 1.25 mM substrate, pH 7.5; ND = No Activity Detected
Text: as §1, §2, §3, §4, §5

[7] = tested on: Rhodococcus sp. phi1 chnB monooxygenase; assay: as above; type: biochemical; details: 1.25 mM substrate, pH 7.5; ND = No Activity Detected
Text: as §1, §2, §3, §4, §5

[8] = Conversion of cyclohexanone to caprolactone by E. coli clones expressing Rhodococcus erythropolis AN12 monooxygenases, GC-MS detection; type: cell-based, Escherichia coli; details: 500 mg/L cyclohexanone, 0.1 mM IPTG, overnight at 24° C., GC-MS of ethylacetate extract
Protocol: Following amplification, the gene fragments were cloned into pTrcHis-TOPO TA vectors with either an N-terminal tail or C-terminal tail, as provided by the vector sequence. These vectors were transformed into E. coli, with transformants grown in Luria-Bertani broth supplemented with ampicillin (100 ug/ml).
The chnB monooxygenase activity of each expressed enzyme from Example 9 was tested for activity according to its ability to convert cyclohexanone to caprolactone.
Clones containing the full length monooxygenase genes were transferred from LB agar plate to 5 mL of M63 minimal media (GIBCO) containing 10 mM glycerol, 50 ug/mL ampicillin, 0.1 mM IPTG, and 500 mg/L cyclohexanone. In addition to the clones containing full length monooxygenases, a plasmid without an insert and a “no cell” control were also assayed. The encoded monooxygenase sequences were expressed upon addition of IPTG to the culture media. The cultures were incubated overnight at room temperature (24° C.). Samples (1.25 mL) for analysis were taken immediately after inoculation and after overnight incubation; cells were removed by centrifugation (4° C., 13,000 rpm).
Caprolactone formed by the action of the cloned monooxygenase was extracted from the aqueous phase with ethylacetate (1.0 ml aqueous/0.5 mL ethylacetate). Caprolactone was detected by gas chromotagraphy mass spectrometry (GC-MS) analysis, using an Agilent 6890 Gas chromatograph system.
The analysis of the ethylacetate phase was performed by injecting 1 uL of the ethyl acetate phase into the GC. The inlet temperature was 115° C. and the column temperature profile was 50° C. for 4 min and ramped to 250° C. at 20° C./min, for a total run time of 14 min. The compounds were separated with an Hewlet Packard HP-5MS (5% phenyl Methyl Siloxane) column (30 m length, 250 um diameter, and 0.25 um film thickness). The mass spectrometer was run in Electron Ionization mode. The background mass spectra was subtracted from the spectra at the retention time of caprolactone (9.857 min). Presence of caprolactone was confirmed by comparison of the test reactions to an authentic standard obtained from Aldrich Chemical Company (St. Louis, Mo.).
Results of these assays are shown below in Table 7, in terms of the presence or absence of detectable caprolactone formation according to the activity of each expressed BV monooxygenase enzyme.

O=C1C=CCCC1 [Cyclohex-2-ene-1-one]
Specific Activity of Monooxygenase Enzymes Against Various Ketone Substrates, sp. SE19 chnB [1]: 5.357 µmol/min/mg | Specific Activity of Monooxygenase Enzymes Against Various Ketone Substrates, sp. CHX chnB [2]: 0.666 µmol/min/mg | Specific Activity of Monooxygenase Enzymes Against Various Ketone Substrates, sp. phi2 chnB [3]: 3.091 µmol/min/mg | Specific Activity of Monooxygenase Enzymes Against Various Ketone Substrates, sp. HCU chnB2 [4]: 0.541 µmol/min/mg | Specific Activity of Monooxygenase Enzymes Against Various Ketone Substrates, sp. HCU chnB1 [5]: 0.435 µmol/min/mg | Specific Activity of Monooxygenase Enzymes Against Various Ketone Substrates, sp. BP2 chnB [6]: 2.739 µmol/min/mg | Specific Activity of Monooxygenase Enzymes Against Various Ketone Substrates, sp. phi1 chnB [7]: 2.694 µmol/min/mg

B1: ORF 8: Rhodococcus erythropolis AN12 ORF 8 chnB monooxygenase, protein SEQ ID NO:22, expressed in E. coli (protein)
chain: MSTEGKYALIGAGPSGLAGARNLDRAGIAFDGFESHDDVGGLWDIDNPHSTVYESAHLISSKGTTAFAEFPMADSVADYPSHIELAEYFRDYADTHDLRRHFAFGTTVIDVLPVDSLWQVTTRSRSGETSVARYRGVIIANGTLSKPNIPTFRGDFTGTLMHTSEYRSAEIFRGKRVLVIGAGNSGCDIAVDAVHQAECVDLSVRRGYYFVPKYLFGRPSDTLNQGKPLPPWIKQRVDTLLLKQFTGDPVRFGFPAPDYKIYESHPVVNSLILHHIGHGDVHVRADVDRFEGKTVRFVDGSSADYDLVLCATGYHLDYPFIAREDLDWSGAAPDLFLNVASRRHDNLFVLGMVEASGLGWQGRYQQAELVAKLITARTEAPAAAREFSAAAAGPPPDLSGGYKYLKLGRMAYYVNKDAYRSAIRRHIGLLDAALTKGGQ
modifications: Rhodococcus erythropolis AN12
Formation of Caprolactone (ability to convert cyclohexanone to caprolactone) [8]: Detected

B2: ORF 9: Rhodococcus erythropolis AN12 ORF 9 chnB monooxygenase, protein SEQ ID NO:24, expressed in E. coli (protein)
chain: MVDIDPTSGPSAGDEETRTRRTRVVVIGAGFGGIGTAVRLKQSGIDDFVVLERAAEPGGTWQVNTYPGAQCDIPSILYSFSFAPNPNWTRLYPLQPEIYDYLRDCVHRFGLAGHFHCNQDVTEASWDEQAQIWRVHTAETVWEAQFLVAATGPFSAPATPDLPGLESFRGQMFHTADWNHDHDLRGERIAVVGTGASAVQIIPRLQPLADTLTVFQRTPTWILPHPDQPMTGWPSALFERVPLTQRLARKGLDLLQEALVPGFVYKPSLLKGLAALGRAHLRRQVRDPELRAKLLPHYAFGCKRPTFSNTYYPALASPNVEVVTDGIVEVQERGVLTADGAFREVDTIVMGTGFRMGDNPSFDTIRGQDGRSLAQTWNGSAEAFLGTTISGFPNFFMILGPNSVVYTSQVVTIEAQVEYIVSCILQMDERGIGSIDVRADVQREFVRATDRRLATSVWNAGGCSSYYLVDGGRNYTFYPGFNRSFRARTKRADLAHYAQVQPVSSAALTTARETVRSR
modifications: Rhodococcus erythropolis AN12
Formation of Caprolactone (ability to convert cyclohexanone to caprolactone) [8]: Detected

B3: ORF 11: Rhodococcus erythropolis AN12 ORF 11 chnB monooxygenase, protein SEQ ID NO:28, expressed in E. coli (protein)
chain: MSPSPLPSVCIIGAGPTGITTAKRMKEFGIPFDCYEASDEVGGNWYYKNPNGMSACYQSLHIDTSKWRLAFEDFPVSADLPDFPHHSELFQYFKDYVEHFGLRESIIFNTSVVAAERDANGLWTVTRSDGEVRTYDVLMVCNGHHWDPNIPDYPGEFDGVLMHSHSYNDPFDPIDMRGKKVVVVGMGNSGLDIASELGQRYLADKLIVSARRGVWVLPKYLGGVPGDKLITPPWMPRGLRLFLSRRFLGKNLGTMEGYGLPKPDHRPFEAHPSASGEFLGRAGSGDITFKPAITKLDGKQVHFADGTAEDVDVVVCATGYNISFPFFDDPNLLPDKDNRFPLFKRMMKPGIDNLFFMGLAQPMPTLVNFAEQQSKLVAAYLTGKYQLPSANEMQEITKADEAYFLAPYYKSPRHTIQLEFDPYVRNMNKEIAKGTKRAAASGNKLPVAARAAAHELEKADRA
modifications: Rhodococcus erythropolis AN12
Formation of Caprolactone (ability to convert cyclohexanone to caprolactone) [8]: Detected

B4: ORF 12: Rhodococcus erythropolis AN12 ORF 12 chnB monooxygenase, protein SEQ ID NO:30, expressed in E. coli (protein)
chain: VNNESDHFEVVIIGGGISGIGAAIHLQRLGIDNFALLEKADSLGGTWRANTYPGCACDVPSGLYSYSFAANPDWTRLFAEQPEIREYIENTAGTHGVDKHVRFGVEMLSARWDASQSLWKITTSSGELTARFVIAAAGPWNEPLTPAIPGLEAFEGEVFHSSQWNHDYDLTGKLVAVVGTGASAVQFVPRIVSQVSALHLYQRTAQWVLPKPDHYVPRIERSVMRFVPGAQKALRSIEYGIMEALGLGFRNPWILRIVQKLGSAQLRLQVRDPKLRKALTPDYTLGCKRLLMSNSYYPALGKPNVSVHANAVEQIRGNTVIGADGVEAEVDAIIFGTGFHILDMPIASKVFDGEGRSLDDHWQGSPQAYFGSAVSGFPNAFILLGPSLGTGHTSAFMILEAQLNYVAQAIGHARRHGWQTIDVREEVQAAFNSQVQEALGTTVYNAGGCESYFFDVNGRNSFNWPWSSGAMRRRLRDFDPYAYNHTSNPESDNTPPEPTPSEPTPSEPTPSEPTTSPEPEYTA
modifications: Rhodococcus erythropolis AN12
Formation of Caprolactone (ability to convert cyclohexanone to caprolactone) [8]: Detected

B5: ORF 16: Rhodococcus erythropolis AN12 ORF 16 chnB monooxygenase, protein SEQ ID NO:38, expressed in E. coli (protein)
chain: VKLPEHVETLIVGAGFAGMGLAARMLRDNRTADVVLIERGADIGGTWRDNTYPGCACDVPTALYSYSFAPSADWSHTFARQPEIYDYLKKVAADTGIGDRVILNCELEAAVWDEDAALWRVRTSLGSLTVKALVAATGALSTPKIPDFPGLDQFSGTTFHSATWNHEHELRGERVAVIGTGASAVQFVPEIADPAAHVTVFQRTPAWVIPRMDRTLPAAQKAVYSRIPATQKVVRGAVYGFRELLGAAMSHATWVLPAFEAAARLHLRRQVKDPELRRKLTPDFTIGCKRMLLSNDWLRTLDRADVSLVDSGLVSVTEGGVVDGHGVEHKVDTIIFATGFTPTEPPVAHLITGKRGETLAAHWNGSPNAYKGTAVSGFPNLFLMYGPNTNLGHSSIVYMLESQAEYVNDALNTMKRERLDALDVNESVQVHYNKGIQHELQHTVWNKGGCSSWYIDPEGRNSVQWPTFTFKFRSLLEHFDRENYSARKIESVQA
modifications: Rhodococcus erythropolis AN12
Formation of Caprolactone (ability to convert cyclohexanone to caprolactone) [8]: Detected
